How the values were obtained:
[1] = tested on: Bacillus subtilis PCI-219; assay: Antibacterial activity relative to (-)-spergualin; assay type: cell-based; details: relative to (-)-spergualin (3HCl·½H2O)
Excerpt: The compound was colorless and syrupy, and its melting point could not be measured clearly. […] The antibacterial activity against Bacillus subtilis PCI-219' was 134 % of that of (-)-spergualin (3HCl·½H2O).

[2] = tested on: Mouse Leukemia L1210 cells; assay: Treatment of mouse Leukemia L1210 (survival of intraperitoneally inoculated mice); assay type: in vivo; details: for No. of mice that survived 60 days: groups of 8 mice; for T/C %: observed 60 days
Description: […] Mouse Leukemia L1210 cells were inoculated intraperitoneally to groups of 8 mice each. The test compound dissolved in physiological saline solution was intraperitoneally administered once daily for 9 consecutive days, starting on the day inoculation. The animals were raised and observed for 60 days to determine survival rates (%). The survival rates were calculated from the following equation:
T [average period (in days) of survival for the treatment group] X 100
C [average period (in days) for survival for the non-treatment group]
The average survival period for the control (non-treatment group was 7.6 go 8.9 days.
The test results are shown in Table 1 along with those on (-)-spergualin.
Table 1:Efficacy of (-)-15-deoxyspergualin in the treatment of mose Leukemia L1210

[3] = Carcinostatic action compared with synthetic 15-deoxyspergualin; details: compared with 15-deoxyspergualin synthesized previously by condensation
Chemical stability = assay type: physicochemical
[4] = 0.05 mg/kg/day i.p. once daily for 9 days
[5] = 0.10 mg/kg/day i.p. once daily for 9 days
[6] = 0.20 mg/kg/day i.p. once daily for 9 days
[7] = 0.39 mg/kg/day i.p. once daily for 9 days
[8] = 0.78 mg/kg/day i.p. once daily for 9 days
[9] = 1.56 mg/kg/day i.p. once daily for 9 days
[10] = 3.13 mg/kg/day i.p. once daily for 9 days
[11] = 6.25 mg/kg/day i.p. once daily for 9 days
[12] = 12.5 mg/kg/day i.p. once daily for 9 days
[13] = 25 mg/kg/day i.p. once daily for 9 days
[14] = 50 mg/kg/day i.p. once daily for 9 days

## N=C(N)NCCCCCCC(=O)NC(O)C(=O)NCCCCNCCCN (single isomer, unassigned; (-)) [(-)-15-Deoxyspergualin, (-)-15-deoxyspergualin]
[1]
  antibacterial activity against Bacillus subtilis PCI-219, % of that of (-)-spergualin: 134%
[2]; [4]
  No. of mice that survived 60 days: 0/8
  T/C %: 129%
[2]; [5]
  No. of mice that survived 60 days: 0/8
  T/C %: 138%
[2]; [6]
  No. of mice that survived 60 days: 6/8
  T/C %: >664%
[2]; [7]
  No. of mice that survived 60 days: 6/8
  T/C %: >629%
[2]; [8]
  No. of mice that survived 60 days: 8/8
  T/C %: >789%
[2]; [9]
  No. of mice that survived 60 days: 2/8
  T/C %: >493%
[2]; [10]
  No. of mice that survived 60 days: 2/8
  T/C %: >526%
[2]; [11]
  No. of mice that survived 60 days: 0/8
  T/C %: 408%
[3]
  carcinostatic action: markedly better carcinostatic action
Chemical stability; alkalis and acids
  stability to alkalis and acids: very unstable
Chemical stability; free base
  stability in the form of a free base: unstable

## N=C(N)NCCCC[C@H](O)CC(=O)NC(O)C(=O)NCCCCNCCCN (single isomer, unassigned; (-)) [(-)-Spergualin, (-)-spergualin, reference compound]
[2]; [8]
  No. of mice that survived 60 days: 0/8
  T/C %: 107%
[2]; [9]
  No. of mice that survived 60 days: 1/8
  T/C %: >301%
[2]; [10]
  No. of mice that survived 60 days: 3/8
  T/C %: >441%
[2]; [11]
  No. of mice that survived 60 days: 8/8
  T/C %: >732%
[2]; [12]
  No. of mice that survived 60 days: 4/8
  T/C %: >586%
[2]; [13]
  No. of mice that survived 60 days: 0/8
  T/C %: 334%
[2]; [14]
  No. of mice that survived 60 days: 0/8
  T/C %: 295%
